How the values were obtained:
recombinant TrxR [1] = molecular target: T1, recombinant TrxR (Rattus norvegicus, UniProt O89049); experiment: Sec-independent SecTRAP activity (Juglone assay); details: compound at the concentration that achieves 100% inhibition of TrxR in the DTNB assay
T1 sequence (O89049 1-499): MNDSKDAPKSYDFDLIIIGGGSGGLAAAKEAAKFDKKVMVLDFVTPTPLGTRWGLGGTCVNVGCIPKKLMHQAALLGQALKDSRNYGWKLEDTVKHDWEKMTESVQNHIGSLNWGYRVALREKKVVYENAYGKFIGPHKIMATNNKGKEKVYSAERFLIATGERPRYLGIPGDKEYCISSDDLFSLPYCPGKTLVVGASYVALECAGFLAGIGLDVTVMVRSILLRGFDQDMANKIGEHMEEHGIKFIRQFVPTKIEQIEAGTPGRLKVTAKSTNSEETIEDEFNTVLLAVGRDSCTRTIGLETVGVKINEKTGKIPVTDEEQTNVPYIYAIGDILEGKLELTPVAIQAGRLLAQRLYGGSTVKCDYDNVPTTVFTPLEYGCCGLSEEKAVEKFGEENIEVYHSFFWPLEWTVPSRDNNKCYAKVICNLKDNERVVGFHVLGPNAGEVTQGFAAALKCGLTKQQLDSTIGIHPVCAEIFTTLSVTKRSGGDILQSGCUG
Experimental: (§3) SecTRAP forming capabilities of compounds with TrxR was determined using the Juglone Assay. Compounds were incubated in the presence of recombinant TrxR and 250 μM NADPH for 15 minutes at concentrations fully inhibiting enzyme activity in the DTNB assay. 100 μM juglone was then added to each well and NADPH consumption was followed at OD340 to determine sustained reductive capacity at the N-terminus of TrxR (SecTRAP Activity). Activity was determined following the consumption of NADPH over time and normalized to DMSO only (Vehicle) and TrxR lacking (blank) controls.
(§4) Aliquots were used in a DTNB assay to determine inhibition of enzyme activity. […] Incubation samples were then added to a reaction buffer containing 250 μM NADPH and 100 μM juglone, whereupon NADPH consumption was followed at OD340 to determine sustained SecTRAP activity.
(§5) Higher % values for juglone activity (juglone reduction activity) in this assay are indicative of stronger prooxidant activity.

[2] = tested on: NB-4 (a leukaemia cell line); experiment: MTT cell viability assay, NB-4; assay type: cell-based; details: 72 hrs
Experimental: (§1) MDA-MB-453 (ATCC HTB-131) cells were grown in media with sodium pyruvate. MDA-MB-231 cells (ATCC HTB-26) were grown in DMEM media or L-15 supplemented with Glutamax (1×). U87-MG (ATCC HTB-14) and MDA-MB-468 (ATCC HTB-132) cells were cultured in DMEM supplemented with Glutamax (1×). NB-4 (DSMZ ACC-207) cells were cultured in RPMI 1640.
(§2) Breast cancer and glioblastoma cell lines were plated 4000 cells/well in 96-well plates in the presence of 10% FBS media. The following day cells were treated with various concentrations of the example compounds (0.1% DMSO final) and incubated for 72 hrs. After the incubation an MTT assay was performed to access cell viability. Percent of viability was determined using DMSO vehicle and no cell (blank) controls.

Trx in MDA-MB-231 cells = experiment: Intracellular Trx levels by ELISA in MDA-MB-231 tumor cells; assay type: cell-based, human
Experimental: The human mammary carcinoma cell line MDA-MB-231 was obtained from the American Type Culture Collection (ATCC; Manassas, Va.) and cultured in Leibovitz's L-15 medium (Thermo Fisher Scientific, USA) supplemented with 10% (v/v) heat-inactivated fetal bovine serum (Thermo Fisher Scientific, USA), 10 mM HERBS (Sigma), 25 mM sodium bicarbonate (Sigma), 1× Glutamax (Sigma), 100 IU/mL penicillin and 100 μg/ml streptomycin (Sigma) in a 5% CO2 atmosphere at 37° C. Briefly, cells were seeded at 7500 cells/well in 96-well plates. After 24 h, the cells were treated either with different concentrations of test compounds or DMSO (0.5%; vehicle control) respectively and further incubated at 37° C. in a CO2 incubator. Culture supernatants were collected at different time points, like, immediately after cell plating (−24 h), 0 h (at the time of compound addition), and 1 h, 6 h, 12 h, 24 h, 48 h, 72 h and 96 h following compound addition. Subsequently, cells were lysed from corresponding wells with 0.1% Triton X-100 and the lysates were collected. Trx levels were measured in both the culture supernatants and cell lysates by ELISA using TXN (Human) ELISA Kit [Abnova; Cat no: KA0535] following manufacturer instruction. A standard curve was prepared using different concentrations of the Trx standard (provided in the kit) with the help of GraphPad Prism software (version 5.0; La Jolla, Calif., USA). Trx concentrations for the unknown samples were calculated from the standard curve. The data were expressed as the means of three replicates.

GR from baker's yeast = molecular target: T2, GR from baker's yeast (Saccharomyces cerevisiae, UniProt P41921); experiment: Glutathione reductase (GR) activity assay; assay type: biochemical; details: Molar concentration
T2 sequence (P41921 17-483 limits assumed): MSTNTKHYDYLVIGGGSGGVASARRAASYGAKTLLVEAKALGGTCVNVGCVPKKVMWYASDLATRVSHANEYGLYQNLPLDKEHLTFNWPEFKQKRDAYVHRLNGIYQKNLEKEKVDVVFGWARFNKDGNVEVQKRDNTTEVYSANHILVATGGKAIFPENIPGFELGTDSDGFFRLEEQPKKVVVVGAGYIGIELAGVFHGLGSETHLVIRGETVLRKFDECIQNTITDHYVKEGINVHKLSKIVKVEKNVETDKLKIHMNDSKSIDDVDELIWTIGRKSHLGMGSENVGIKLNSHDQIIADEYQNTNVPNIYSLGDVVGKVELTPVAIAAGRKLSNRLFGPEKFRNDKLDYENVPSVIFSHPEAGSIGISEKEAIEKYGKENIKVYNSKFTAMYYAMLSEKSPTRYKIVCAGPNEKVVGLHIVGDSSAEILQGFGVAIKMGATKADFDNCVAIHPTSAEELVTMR
Experimental: GR activity was determined incubating compounds at various concentrations with GR from baker's yeast and 250 μM NADPH for 15 minutes, whereupon 10 mM oxidized glutathione (GSSG) was added to each well and NADPH consumption was followed at OD340. Activity was determined following the consumption of NADPH over time and normalized to DMSO only (Vehicle) and GR lacking (blank) controls.

[3] = tested on: MDA-MB-231 (a breast cancer cell line); experiment: MTT cell viability assay, MDA-MB-231; assay type: cell-based, human; details: 72 hrs
Experimental: as §1, §2

recombinant TrxR [4] = molecular target: T1, recombinant TrxR
Experimental: as §3, §4, §5

[5] = tested on: U-87 MG (a glioblastoma cell line); experiment: MTT cell viability assay, U-87 MG; assay type: cell-based; details: 72 hrs
Experimental: as §1, §2

MDA-MB-231 cells = experiment: Alamar-Blue cell viability assay; assay type: cell-based, human; details: 72 hrs
Experimental: MDA-MB-231 cells were plated 2000 cells/well in 96-well black optical plates in the presence of 10% FBS media containing 25 nM selenite. The following day cells were treated with various concentrations of compounds (0.1% DMSO final) and incubated for 72 hrs. After the incubation Alamar Blue reagent was added to each well and incubated for additional 3 hrs. Fluorescence was read ex:530 nm/em:590 nm, and percent of viability was determined using DMSO vehicle and no cell (blank) controls.

[6] = tested on: MDA-MB-468 (a breast cancer cell line); experiment: MTT cell viability assay, MDA-MB-468; assay type: cell-based; details: 72 hrs
Experimental: as §1, §2

Row | Juglone Act (% @ 100% DTNB inhibition) (recombinant TrxR [1]) [%] | IC50 [2] [nM] | IC50 (GR from baker's yeast) [nM] | Structure (SMILES) | time after which intracellular Trx is reduced compared with control cells (Trx in MDA-MB-231 cells; at 1 μM) [h] | intracellular levels of Trx compared with control cells (Trx in MDA-MB-231 cells; at 1 μM and 10 μM) | time after which intracellular Trx is reduced compared with control cells (Trx in MDA-MB-231 cells; at 10 μM) [h] | time after which intracellular Trx is reduced compared with control cells (Trx in MDA-MB-231 cells; at 1 μM and 10 μM) [h] | further results
1 | 83.67 | 1210 | > 30000 | COc1ccc([N+](=O)[O-])c(S(=O)(=O)Cc2ccccc2)n1 [OT-1011, 2-Benzylsulfonyl-6-methoxy-3-nitropyridine] | – | reduced | – | 6 to 12 | –
2 | 89.8 | – | > 30000 | COc1ccc([N+](=O)[O-])c(S(=O)(=O)c2ccccn2)n1 [OT-1012, 6-Methoxy-3-nitro-2-(pyridin-2-ylsulfonyl)pyridine] | – | – | – | – | IC50 ([5]; Homo sapiens, U-87 MG): 8200 nM; intracellular levels of Trx compared with control cells (Trx in MDA-MB-231 cells; at all doses): reduced; time after which intracellular Trx is reduced compared with control cells (Trx in MDA-MB-231 cells; at all doses): 12 h
3 | 91.16 | 1170 | > 30000 | COC(=O)CCS(=O)(=O)c1nc(OC)ccc1[N+](=O)[O-] [OT-1113, methyl 3-((6-methoxy-3-nitropyridin-2-yl)sulfonyl)propanoate] | 48 | reduced | 65 | – | –
4 | – | – | – | CC[S+]([O-])c1nc(OC)ccc1[N+](=O)[O-] (stereo not drawn) [OT-1131, 2-(ethylsulfinyl)-6-methoxy-3-nitropyridine] | – | reduced | – | ≤ 6 | –

Row | Structure (SMILES) | Juglone Act (% @ 100% DTNB inhibition) (recombinant TrxR [1]) [%] | IC50 [2] [nM] | IC50 (GR from baker's yeast) [nM] | time after which intracellular Trx is reduced compared with control cells (Trx in MDA-MB-231 cells; at 1 μM) [h] | intracellular levels of Trx compared with control cells (Trx in MDA-MB-231 cells; at 1 μM and 10 μM) | time after which intracellular Trx is reduced compared with control cells (Trx in MDA-MB-231 cells; at 10 μM) [h] | time after which intracellular Trx is reduced compared with control cells (Trx in MDA-MB-231 cells; at 1 μM and 10 μM) [h] | further results
5 | O=C1C=C[C@H]2[C@@H]3C(=O)N(Cc4ccccc4)C(=O)[C@@H]3[C@@H]1N2Cc1ccccc1 (relative stereo) [OT-2056, exo-4,11-Dibenzyl-4,11-diazatricyclo[5.3.1.0^2,6]undec-9-ene-3,5,8-trione] | 107.692 | 420 | > 30000 | 24 | reduced | 6 | – | –
6 | CC(=O)OC[C@H]1O[C@@H]([S-])[C@H](OC(C)=O)[C@@H](OC(C)=O)[C@@H]1OC(C)=O.CCP(CC)CC.[Au+] [Auranofin, reference compound] | – | – | > 30000 | – | – | – | – | IC50 [3]: 1660 nM; classification as SecTRAP forming agent (recombinant TrxR [4]): SecTRAP-forming agent; IC50 [5]: 1720 nM; IC50 (MDA-MB-231 cells): 1400 nM; IC50 [6]: 310 nM
